18 compounds from patent publication EP4818179A1, “PREPARATION FOR AND USE OF PYRIMIDO-THIOPYRANDIONE INHIBITOR FOR KRAS G12C MUTANT PROTEIN” (Ya Therapeutics Inc, priority 2024, dated 2025) can be followed below.

The subject of this assay is H358 (KRAS G12C mutant) cells. Put plainly: Tumor cell proliferation inhibition experiment (Cell Titer-Glo luminescent cell viability assay). Conditions: Homo sapiens, NCI-H358, 72 h, read-out: NCI-H538 IC50(nm). Background: ATP-based viability assays read luminescence as a measure of living cells.

Experimental: H358 (KRAS G12C mutant) cells were digested, centrifuged, and resuspended. Cell density was determined using a Scepter automated cell counter. The cells were diluted to a solution containing 44,000 cells per milliliter. The adjusted cell solution was added to 90 µL per well in a 96-well culture plate. The 96-well plate was placed in a 37°C, 5% CO2 incubator. After culturing the cells for 24 hours, different concentrations of the test compound were added. The cells were then cultured with the compound for 72 hours in the presence of 10% fetal bovine serum. The ATP content was measured using the Cell Titer-Glo luminescent cell viability assay kit (see manufacturer's instructions for details) to assess cell growth inhibition. In short, 30 µL of Cell Titer-Glo reagent was added to each well, and the plate was shaken for 10 minutes to induce cell lysis. The fluorescence signal was detected and recorded using a Fluoroskan Ascent FL (Thermo). The maximum signal value was obtained from cells treated with dimethyl sulfoxide for 72 hours. Minimum signal value was obtained from a single culture medium (zero cell count). Inhibition rate % = (maximum signal value - minimum signal value) / (maximum signal value - minimum signal value × 100%). Data was processed using GraphPadprism 5 software. IC50 values were calculated by fitting an S-shaped dose-response curve.

Consider `C=C(F)C(=O)N1CCN(c2nc(OC[C@@]34CCCN3C[C@H](F)C4)nc3c2CS(=O)(=O)C(c2c(F)c(N)cc(C)c2C(F)(F)F)C3)[C@@H](C)C1` (stereo partly drawn) [Compound 2, 1-((3S)-4-(7-(3-amino-2-fluoro-5-methyl-6-(trifluoromethyl)phenyl)-2-(((2R,7AS)-2-fluorotetrahydro-1H-pyrrolazin-7a(5H)-yl)methoxy)-6,6-dioxo-7,8-dihydro-5H-thiaran[4,3-d]pyrimidin-4-yl)-3-methylpyrazin-1-yl)-2-fluoroprop-2-en-1-one], for which the IC50 (usually the concentration that inhibits the measured activity by half) is < 10 nM.

Take `C=CC(=O)N1CCN(c2nc(OC[C@@]34CCCN3C[C@H](F)C4)nc3c2CS(=O)(=O)C(c2nc(N)cc(C)c2C(F)(F)F)C3)C[C@@H]1CC#N` (stereo partly drawn) [Compound 7, 2-((2S)-4-(7-(6-amino-4-methyl-3-(trifluoromethyl)pyridin-2-yl)-2-(((2R,7AS)-2-fluorotetrahydro-1H-pyrrolazin-7a(5H)-yl)methoxy)-6,6-dioxo-7,8-dihydro-5H-thiaran[4,3-d]pyrimidin-4-yl)-1-(acryloyl)pyrazin-2-yl)acetonitrile]: the IC50 was < 10 nM.

In the case of `C=C(F)C(=O)N1CCN(c2nc(OC[C@@]34CCCN3C[C@H](F)C4)nc3c2CS(=O)(=O)C(c2c(F)c(N)cc(C)c2C(F)(F)F)C3)C[C@@H]1CC#N` (stereo partly drawn) [Compound 4, 2-((2S)-4-(7-(3-amino-2-fluoro-5-methyl-6-(trifluoromethyl)phenyl)-2-(((2R,7AS)-2-fluorotetrahydro-1H-pyrrolazin-7a(5H)-yl)methoxy)-6,6-dioxo-7,8-dihydro-5H-thiaran[4,3-d]pyrimidin-4-yl)-1-(2-fluoroacryloyl)pyrazin-2-yl)acetonitrile], the IC50 is < 10 nM.

`C=C(F)C(=O)N1CCN(c2nc(OC[C@@]34CCCN3C[C@H](F)C4)nc3c2CS(=O)(=O)[C@H](c2nc(N)cc(C)c2C(F)(F)F)C3)C[C@@H]1CC#N` [Compound 8A, 2-((2S)-4-((7S)-7-(6-amino-4-methyl-3-(trifluoromethyl)pyridin-2-yl)-2-(((2R,7AS)-2-fluorotetrahydro-1H-pyrrolazin-7a(5H)-yl)methoxy)-6,6-dioxo-7,8-dihydro-5H-thiaran[4,3-d]pyrimidin-4-yl)-1-(2-fluoroacryloyl)pyrazin-2-yl)acetonitrile]: the IC50 is < 10 nM.

For the compound `C=CC(=O)N1CCN(c2nc(OC[C@@]34CCCN3C[C@H](F)C4)nc3c2CS(=O)(=O)[C@@H](c2nc(N)cc(C)c2C(F)(F)F)C3)C[C@@H]1CC#N` [Compound 7B, 2-((2S)-4-((7R)-7-(6-amino-4-methyl-3-(trifluoromethyl)pyridin-2-yl)-2-(((2R,7AS)-2-fluorotetrahydro-1H-pyrrolazin-7a(5H)-yl)methoxy)-6,6-dioxo-7,8-dihydro-5H-thiaran[4,3-d]pyrimidin-4-yl)-1-(acryloyl)pyrazin-2-yl)acetonitrile], the IC50 was < 10 nM.

With `C=CC(=O)N1CCN(c2nc(OC[C@@]34CCCN3C[C@H](F)C4)nc3c2CS(=O)(=O)C(c2nc(N)cc(C)c2C(F)(F)F)C3)[C@@H](C)C1` (stereo partly drawn) [Compound 5, 1-((3S)-4-(7-(6-amino-4-methyl-3-(trifluoromethyl)pyridin-2-yl)-2-(((2R,7AS)-2-fluorotetrahydro-1H-pyrrolazin-7a(5H)-yl)methoxy)-6,6-dioxo-7,8-dihydro-5H-thiaran[4,3-d]pyrimidin-4-yl)-3-methylpyrazin-1-yl)prop-2-en-1-one], the IC50 was < 10 nM.

Consider `C=C(F)C(=O)N1CCN(c2nc(OC[C@@]34CCCN3C[C@H](F)C4)nc3c2CS(=O)(=O)[C@H](c2nc(N)cc(C)c2C(F)(F)F)C3)[C@@H](C)C1` [Compound 6A, 1-((3S)-4-((7S)-7-(6-amino-4-methyl-3-(trifluoromethyl)pyridin-2-yl)-2-(((2R,7AS)-2-fluorotetrahydro-1H-pyrrolazin-7a(5H)-yl)methoxy)-6,6-dioxo-7,8-dihydro-5H-thiaran[4,3-d]pyrimidin-4-yl)-3-methylpyrazin-1-yl)-2-fluoroprop-2-en-1-one], for which the IC50 is < 10 nM.

Regarding `C=CC(=O)N1CCN(c2nc(OC[C@@]34CCCN3C[C@H](F)C4)nc3c2CS(=O)(=O)[C@H](c2c(F)c(N)cc(C)c2C(F)(F)F)C3)C[C@@H]1CC#N` [Compound 3A, 2-((2S)-1-Acryloyl-4-((7S)-7-(3-amino-2-fluoro-5-methyl-6-(trifluoromethyl)phenyl)-2-(((2R,7AS)-2-fluorotetrahydro-1H-pyrrolazin-7a(5H)-yl)methoxy)-6,6-dioxo-7,8-di hydro-5H-thiaran[4,3-d]pyrimidin-4-yl)pyrazin-2-yl)acetonitrile], the IC50 is < 10 nM.

Take `C=CC(=O)N1CCN(c2nc(OC[C@@]34CCCN3C[C@H](F)C4)nc3c2CS(=O)(=O)[C@H](c2c(F)c(N)cc(C)c2C(F)(F)F)C3)[C@@H](C)C1` [Compound 1A, 1-((3S)-4-((7S)-7-(3-amino-2-fluoro-5-methyl-6-(trifluoromethyl)phenyl)-2-(((2R,7A S)-2-fluorotetrahydro-1H-pyrrolazin-7a(5H)-yl)methoxy)-6,6-dioxo-7,8-dihydro-5H-thiaran[4,3-d]pyrimidin-4-yl)-3-methylpyrazin-1-yl)prop-2-en-1-one]: the IC50 is < 10 nM.

Turning to `C=CC(=O)N1CCN(c2nc(OC[C@@]34CCCN3C[C@H](F)C4)nc3c2CS(=O)(=O)[C@@H](c2c(F)c(N)cc(C)c2C(F)(F)F)C3)[C@@H](C)C1` [Compound 1B, 1-((3S)-4-((7R)-7-(3-amino-2-fluoro-5-methyl-6-(trifluoromethyl)phenyl)-2-(((2R,7A S)-2-fluorotetrahydro-1H-pyrrolazin-7a(5H)-yl)methoxy)-6,6-dioxo-7,8-dihydro-5H-thiaran[4,3-d]pyrimidin-4-yl)-3-methylpyrazin-1-yl)prop-2-en-1-one], the IC50 is < 10 nM.

Regarding `C=CC(=O)N1CCN(c2nc(OC[C@@]34CCCN3C[C@H](F)C4)nc3c2CS(=O)(=O)C(c2c(F)c(N)cc(C)c2C(F)(F)F)C3)[C@@H](C)C1` (stereo partly drawn) [Compound 1, 1-((3S)-4-(7-(3-amino-2-fluoro-5-methyl-6-(trifluoromethyl)phenyl)-2-(((2R,7AS)-2-fluorotetrahydro-1H-pyrrolazin-7a(5H)-yl)methoxy)-6,6-dioxo-7,8-dihydro-5H-thiaran[4,3-d]pyrimidin-4-yl)-3-methylpyrazin-1-yl)prop-2-en-1-one], the IC50 was < 10 nM.

`C=CC(=O)N1CCN(c2nc(OC[C@@]34CCCN3C[C@H](F)C4)nc3c2CS(=O)(=O)[C@@H](c2c(F)c(N)cc(C)c2C(F)(F)F)C3)C[C@@H]1CC#N` [Compound 3B, 2-((2S)-1-Acryloyl-4-((7R)-7-(3-amino-2-fluoro-5-methyl-6-(trifluoromethyl)phenyl) -2-(((2R,7AS)-2-fluorotetrahydro-1H-pyrrolazin-7a(5H)-yl)methoxy)-6,6-dioxo-7,8-dihydro-5H-thiaran[4,3-d]pyrimidin-4-yl)pyrazin-2-yl)acetonitrile]: the IC50 was < 10 nM.

As to `C=C(F)C(=O)N1CCN(c2nc(OC[C@@]34CCCN3C[C@H](F)C4)nc3c2CS(=O)(=O)C(c2nc(N)cc(C)c2C(F)(F)F)C3)C[C@@H]1CC#N` (stereo partly drawn) [Compound 8, 2-((2S)-4-(7-(6-amino-4-methyl-3-(trifluoromethyl)pyridin-2-yl)-2-(((2R,7AS)-2-fluorotetrahydro-1H-pyrrolazin-7a(5H)-yl)methoxy)-6,6-dioxo-7,8-dihydro-5H-thiaran[4,3-d]pyrimidin-4-yl)-1-(2-fluoroacryloyl)pyrazin-2-yl)acetonitrile], the IC50 is < 10 nM.

For `C=C(F)C(=O)N1CCN(c2nc(OC[C@@]34CCCN3C[C@H](F)C4)nc3c2CS(=O)(=O)[C@@H](c2nc(N)cc(C)c2C(F)(F)F)C3)[C@@H](C)C1` [Compound 6B, 1-((3S)-4-((7R)-7-(6-amino-4-methyl-3-(trifluoromethyl)pyridin-2-yl)-2-(((2R,7AS)-2-fluorotetrahydro-1H-pyrrolazin-7a(5H)-yl)methoxy)-6,6-dioxo-7,8-dihydro-5H-thiaran[4,3-d]pyrimidin-4-yl)-3-methylpyrazin-1-yl)-2-fluoroprop-2-en-1-one], the IC50 was < 10 nM.

Take `C=C(F)C(=O)N1CCN(c2nc(OC[C@@]34CCCN3C[C@H](F)C4)nc3c2CS(=O)(=O)[C@@H](c2c(F)c(N)cc(C)c2C(F)(F)F)C3)C[C@@H]1CC#N` [Compound 4B, 2-((2S)-4-((7R)-7-(3-amino-2-fluoro-5-methyl-6-(trifluoromethyl)phenyl)-2-(((2R, 7A S)-2-fluorotetrahydro-1H-pyrrolazin-7a(5H)-yl)methoxy)-6,6-dioxo-7,8-dihydro-5H-thiaran[4,3-d]pyrimidin-4-yl)-1-(2-fluoroacryloyl)pyrazin-2-yl)acetonitrile]: the IC50 is < 10 nM.

As for `C=C(F)C(=O)N1CCN(c2nc(OC[C@@]34CCCN3C[C@H](F)C4)nc3c2CS(=O)(=O)[C@H](c2c(F)c(N)cc(C)c2C(F)(F)F)C3)[C@@H](C)C1` [Compound 2A, 1-((3S)-4-((7S)-7-(3-amino-2-fluoro-5-methyl-6-(trifluoromethyl)phenyl)-2-(((2R,7A S)-2-fluorotetrahydro-1H-pyrrolazin-7a(5H)-yl)methoxy)-6,6-dioxo-7,8-dihydro-5H-thiaran[4,3-d]pyrimidin-4-yl)-3-methylpyrazin-1-yl)-2-fluoroprop-2-en-1-one], the IC50 is < 10 nM.

Consider `C=C(F)C(=O)N1CCN(c2nc(OC[C@@]34CCCN3C[C@H](F)C4)nc3c2CS(=O)(=O)C(c2nc(N)cc(C)c2C(F)(F)F)C3)[C@@H](C)C1` (stereo partly drawn) [Compound 6, 1-((3S)-4-(7-(6-amino-4-methyl-3-(trifluoromethyl)pyridin-2-yl)-2-(((2R,7AS)-2-fluorotetrahydro-1H-pyrrolazin-7a(5H)-yl)methoxy)-6,6-dioxo-7,8-dihydro-5H-thiaran[4,3-d]pyrimidin-4-yl)-3-methylpyrazin-1-yl)-2-fluoroprop-2-en-1-one], for which the IC50 was < 10 nM.

On to `C=C(F)C(=O)N1CCN(c2nc(OC[C@@]34CCCN3C[C@H](F)C4)nc3c2CS(=O)(=O)[C@@H](c2nc(N)cc(C)c2C(F)(F)F)C3)C[C@@H]1CC#N` [Compound 8B, 2-((2S)-4-((7R)-7-(6-amino-4-methyl-3-(trifluoromethyl)pyridin-2-yl)-2-(((2R,7AS)-2-fluorotetrahydro-1H-pyrrolazin-7a(5H)-yl)methoxy)-6,6-dioxo-7,8-dihydro-5H-thiaran[4,3-d]pyrimidin-4-yl)-1-(2-fluoroacryloyl)pyrazin-2-yl)acetonitrile], for which the IC50 was < 10 nM.
